Laboratory results taken from PMC3625062 (MedChemComm, 2012).

Tests used:
R6/2 mice = settings: behavioural symptoms such as rotarod performance improved; cited from earlier work
PDE10A = PDE10A (Homo sapiens, UniProt Q9Y233); assay: PDE10A inhibition, [3H]cAMP hydrolysis scintillation proximity assay; format: biochemical
Sequence of PDE10A (Q9Y233 whole entry): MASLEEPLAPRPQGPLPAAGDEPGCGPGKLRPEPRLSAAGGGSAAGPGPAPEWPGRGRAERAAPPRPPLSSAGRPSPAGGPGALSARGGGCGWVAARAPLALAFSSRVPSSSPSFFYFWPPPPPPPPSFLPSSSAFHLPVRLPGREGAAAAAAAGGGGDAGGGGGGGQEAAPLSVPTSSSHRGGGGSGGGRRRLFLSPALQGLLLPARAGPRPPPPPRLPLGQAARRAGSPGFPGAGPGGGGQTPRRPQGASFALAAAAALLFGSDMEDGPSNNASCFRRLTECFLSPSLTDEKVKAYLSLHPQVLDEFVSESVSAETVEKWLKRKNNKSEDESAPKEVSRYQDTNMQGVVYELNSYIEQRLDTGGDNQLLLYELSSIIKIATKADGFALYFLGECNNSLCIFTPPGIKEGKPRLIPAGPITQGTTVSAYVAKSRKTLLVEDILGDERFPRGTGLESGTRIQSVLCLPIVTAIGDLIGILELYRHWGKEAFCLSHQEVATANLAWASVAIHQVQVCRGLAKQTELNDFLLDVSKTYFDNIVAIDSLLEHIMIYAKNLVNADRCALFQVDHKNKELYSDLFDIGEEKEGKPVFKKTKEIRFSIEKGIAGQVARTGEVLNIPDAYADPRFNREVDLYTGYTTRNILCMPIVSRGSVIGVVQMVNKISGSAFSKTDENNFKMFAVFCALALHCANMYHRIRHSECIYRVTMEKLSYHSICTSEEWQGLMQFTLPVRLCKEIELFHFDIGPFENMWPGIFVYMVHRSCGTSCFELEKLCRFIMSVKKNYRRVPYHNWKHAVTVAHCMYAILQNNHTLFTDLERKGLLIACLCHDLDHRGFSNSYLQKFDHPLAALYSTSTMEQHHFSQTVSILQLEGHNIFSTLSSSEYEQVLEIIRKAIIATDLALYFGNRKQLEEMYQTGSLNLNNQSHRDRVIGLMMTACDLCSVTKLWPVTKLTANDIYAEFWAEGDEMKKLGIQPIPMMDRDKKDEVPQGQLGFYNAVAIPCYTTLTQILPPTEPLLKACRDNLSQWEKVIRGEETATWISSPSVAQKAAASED

FC(F)(F)Cn1cc(-c2ccncc2)c(-c2ccc(OCc3ccc4ccccc4n3)cc2)n1 [TP-10, 2-[4-[pyridin-4-yl-1-(2,2,2-trifluoroethyl)-1H-pyrazol-3-yl]-phenoxymethyl]-quinoline]
neuropathology and symptoms in R6/2 mice (R6/2 mice): ameliorated

COc1cccc2ccc(COc3ccc(-c4c(-c5ccncc5)cnn4C)cc3)nc12 [Compound 11f]
fold higher PDE10A IC50 value than 11e (PDE10A; IC50 of 8-methoxy 11f versus 7-methoxy 11e): 2 fold

COc1cc(CSc2ccc(-c3nn(C)cc3-c3ccncc3)cc2)nc2ccccc12 [Compound 10g]
fold less potent for PDE10A than 10b (PDE10A; IC50 versus the corresponding O-atom bridged analogue 10b): 600 fold
